Reference: PubChem BioAssay AID200 (DTP/NCI, 2004)
Values joined by “and” are separate entries in the source; they are usually repeats but may differ in a detail not shown here. Equal values may be shown once. Toxic doses and inconclusive results are not listed. Rule for the calls: active = survival T/C of 150% or more; inactive = T/C below 125% in these data.

Tested on: B6C3F1 mice, B16 melanoma ip, median survival T/C
Assay: NCI In Vivo Anticancer Drug Screen. Data for tumor model B16 Melanoma (intraperitoneal) in B6C3F1 mice
Conditions: endpoint: median survival time, schedule: Q01DX009 (ip), higher = longer survival
Method: The antitumor activity of compounds was measured in mice bearing transplantable tumors. Survival or tumor size were measured and the results are expressed as the measurement made in the treated group (T) divided by the measurement made in the vehicle treated control group (C). The tumor model used in this assay is B16 Melanoma (intraperitoneal) in B6C3F1 mice

[1] = dose: 25.0 mg/kg/injection, vehicle: saline with Tween-80
[2] = dose: 12.5 mg/kg/injection, vehicle: saline with Tween-80
[3] = dose: 50.0 mg/kg/injection, vehicle: saline with Tween-80
[4] = dose: 100.0 mg/kg/injection, vehicle: saline with Tween-80
[5] = dose: 0.5 mg/kg/injection, vehicle: saline
[6] = dose: 2.0 mg/kg/injection, vehicle: saline
[7] = dose: 4.0 mg/kg/injection, vehicle: saline
[8] = dose: 8.0 mg/kg/injection, vehicle: saline
[9] = dose: 50.0 mg/kg/injection, vehicle: saline
[10] = dose: 100.0 mg/kg/injection, vehicle: saline
[11] = dose: 200.0 mg/kg/injection, vehicle: saline
[12] = dose: 3.12 mg/kg/injection, vehicle: Klucel (hydroxypropylcellulose) (HPC)
[13] = dose: 6.25 mg/kg/injection, vehicle: Klucel (hydroxypropylcellulose) (HPC)
[14] = dose: 25.0 mg/kg/injection, vehicle: Klucel (hydroxypropylcellulose) (HPC)
[15] = dose: 50.0 mg/kg/injection, vehicle: Klucel (hydroxypropylcellulose) (HPC)
[16] = dose: 100.0 mg/kg/injection, vehicle: Klucel (hydroxypropylcellulose) (HPC)
[17] = dose: 200.0 mg/kg/injection, vehicle: Klucel (hydroxypropylcellulose) (HPC)
[18] = dose: 12.5 mg/kg/injection, vehicle: Klucel (hydroxypropylcellulose) (HPC)

Measured: T/C

CC1(C)N=C(N)N=C(N)N1c1ccc(CCCCc2ccc(S(=O)(=O)F)cc2Cl)c(Cl)c1
active: [1] 156 % of control
inactive: dose: 1.56 mg/kg/injection, vehicle: other 100 % of control | dose: 1.56 mg/kg/injection, vehicle: saline with Tween-80 122 % of control | dose: 3.12 mg/kg/injection, vehicle: other 104 % of control | dose: 6.25 mg/kg/injection, vehicle: other 109 % of control | dose: 12.5 mg/kg/injection, vehicle: other 102 % of control

Nc1ccc(S(=O)(=O)Nc2cnc3c(Cl)cccc3n2)cc1
inactive: dose: 50.0 mg/kg/injection, vehicle: DMSO 97 % of control | dose: 100.0 mg/kg/injection, vehicle: DMSO 100 % of control | dose: 200.0 mg/kg/injection, vehicle: DMSO 116 % of control | dose: 400.0 mg/kg/injection, vehicle: DMSO 105 % of control

O=[N+]([O-])c1ccc(-n2[nH]nnc2=S)cc1
inactive: [2] 100 % of control and 101 % of control | [1] 101 % of control and 103 % of control | [3] 95 % of control | [4] 93 % of control and 100 % of control | dose: 200.0 mg/kg/injection, vehicle: saline with Tween-80 88 % of control and 92 % of control

COC(=O)Nc1nc2ccc(C3(c4ccc(F)cc4)OCCO3)cc2[nH]1
active: [3] 172 % of control
inactive: dose: 6.25 mg/kg/injection, vehicle: saline with Tween-80 93 % of control | [2] 118 % of control | dose: 12.5 mg/kg/injection, vehicle: saline 117 % of control

CC(=O)Oc1ccc2c3c1O[C@H]1[C@@H](OC(C)=O)C=C[C@H]4[C@@H](C2)N(C)CC[C@@]341
inactive: [5] 101 % of control | dose: 1.0 mg/kg/injection, vehicle: saline 93 % of control | [6] 90 % of control | [7] 100 % of control | [8] 98 % of control | dose: 16.0 mg/kg/injection, vehicle: saline 86 % of control | dose: 32.0 mg/kg/injection, vehicle: saline 93 % of control | dose: 64.0 mg/kg/injection, vehicle: saline 102 % of control | dose: 128.0 mg/kg/injection, vehicle: saline 110 % of control

COC1C(OC(=O)/C=C/C=C/C=C/C=C/C(=O)O)CCC2(CO2)C1C1(C)OC1CC=C(C)C (configuration not stated)
inactive: dose: 25.0 mg/kg/injection, vehicle: saline 117 % of control | [9] 113 % of control | [10] 119 % of control | [11] 113 % of control

Nc1nc(-c2ccccc2)c(N=O)c(=O)[nH]1
inactive: dose: 14.0 mg/kg/injection, vehicle: saline with Tween-80 96 % of control | dose: 28.0 mg/kg/injection, vehicle: saline with Tween-80 94 % of control | dose: 56.0 mg/kg/injection, vehicle: saline with Tween-80 91 % of control | dose: 112.0 mg/kg/injection, vehicle: saline with Tween-80 101 % of control

[Na+]
inactive: dose: 25.0 mg/kg/injection, vehicle: water 111 % of control | dose: 50.0 mg/kg/injection, vehicle: water 91 % of control | dose: 100.0 mg/kg/injection, vehicle: water 92 % of control | dose: 200.0 mg/kg/injection, vehicle: water 106 % of control | dose: 400.0 mg/kg/injection, vehicle: water 86 % of control

CNC(=O)OCc1c(COC(=O)NC)c(-c2ccc(F)cc2)n2c1CCC2
inactive: dose: 0.78 mg/kg/injection, vehicle: Klucel (hydroxypropylcellulose) (HPC) 114 % of control | dose: 1.56 mg/kg/injection, vehicle: Klucel (hydroxypropylcellulose) (HPC) 108 % of control | [12] 122 % of control | [13] 117 % of control

COC1=C(C)C(=O)C2=C(C1=O)C1C3CC4=C(C(=O)C(OC)=C(C)C4=O)C(CNC(=O)C(C)=O)N3C(C#N)C(C2)N1C (configuration not stated)
inactive: dose: 0.12 mg/kg/injection, vehicle: Klucel (hydroxypropylcellulose) (HPC) 95 % of control | dose: 0.25 mg/kg/injection, vehicle: Klucel (hydroxypropylcellulose) (HPC) 103 % of control and 106 % of control | dose: 0.5 mg/kg/injection, vehicle: Klucel (hydroxypropylcellulose) (HPC) 99 % of control and 106 % of control | dose: 1.0 mg/kg/injection, vehicle: Klucel (hydroxypropylcellulose) (HPC) 115 % of control and 103 % of control

Nc1nc(SCc2ccccc2Cl)c2ncn(C3OC(CO)C(O)C3O)c2n1 (configuration not stated)
inactive: [2] 106 % of control | [1] 90 % of control

C=CCOc1cc2c(cc1C(C)c1ccc(OC)cc1)OCO2 (configuration not stated)
inactive: [14] 120 % of control | [15] 124 % of control and 99 % of control | [16] 108 % of control | [17] 115 % of control

C[C@H](N)C(=O)N[C@@H]1[C@H]2C(=C(O)C[C@@H](O)[C@@H]2O)C(=O)O[C@@H]1C
inactive: [9] 101 % of control | dose: 75.0 mg/kg/injection, vehicle: saline with Tween-80 111 % of control | [10] 98 % of control | dose: 150.0 mg/kg/injection, vehicle: saline with Tween-80 120 % of control | [11] 111 % of control | dose: 300.0 mg/kg/injection, vehicle: saline with Tween-80 117 % of control | dose: 400.0 mg/kg/injection, vehicle: saline 103 % of control | dose: 1200.0 mg/kg/injection, vehicle: saline with Tween-80 113 % of control

O=c1nc(-c2ccco2)sc(=O)[nH]1
inactive: [14] 95 % of control | [15] 99 % of control | [16] 118 % of control | [17] 112 % of control

CC1=CC(=NN=c2cc(C)n([O-])c(C)c2)C=C(C)[N+]1=O
inactive: dose: 12.5 mg/kg/injection, vehicle: suspension in saline 91 % of control | [1] 107 % of control | dose: 25.0 mg/kg/injection, vehicle: suspension in saline 99 % of control | [3] 123 % of control | dose: 50.0 mg/kg/injection, vehicle: suspension in saline 95 % of control | [4] 121 % of control | dose: 100.0 mg/kg/injection, vehicle: suspension in saline 108 % of control

COc1cccc2c1C(=O)c1c(O)c3c(c(O)c1C2=O)C[C@@](O)(/C(C)=N/NC(=O)c1ccc(Cl)cc1)C[C@@H]3OC1CC(N)C(O)C(C)O1 (some centres not stated)
inactive: [5] 105 % of control
active: [6] 183 % of control | [7] 216 % of control | [8] 151 % of control

O=C(CC(=O)C(F)(F)F)c1csc2ccccc12
inactive: [12] 112 % of control | [13] 89 % of control | [18] 103 % of control | [14] 113 % of control | [15] 100 % of control | [16] 87 % of control

O=C(O)C1(NO)CCCCC1
inactive: [18] 103 % of control and 105 % of control | [14] 111 % of control and 98 % of control | [15] 111 % of control and 105 % of control | [16] 110 % of control and 107 % of control | [17] 103 % of control and 108 % of control | dose: 400.0 mg/kg/injection, vehicle: Klucel (hydroxypropylcellulose) (HPC) 113 % of control and 106 % of control

CC(=O)Nc1cc2oc3ccccc3c2cc1[N+](=O)[O-]
inactive: [4] 88 % of control | dose: 400.0 mg/kg/injection, vehicle: saline with Tween-80 91 % of control
